From patent publication US4062948A, “Dihydromocimycin antibiotics” (Gist-Brocades N.V., priority 1970, dated 1977)
Where a name gives a salt, the structure may show the parent alone.

Experiments:
Format in all cases: in vivo
[1] = test system: microorganism causing Treponema dysentery; test: pigs infected with Treponema dysentery (Example VI)
Text: Twenty pigs, 3 months old, were infected with the microorganism causing Treponema dysentery by administering to them feed mixed with a homogenous mixture of contents of the intestines and intestinal mucous membranes of two animals suffereing from the disease. The infected pigs were divided into four groups of five animals each and the animals were fed with the feed as a slurry diluted 1:1 with water for 1 week. The total amount of feed per animal was 1.2 kg each day and was given in two portions.
After 5 days, the first symptoms of the disease were observed from the thin faeces and confirmed by a microbiological investigation of the faeces and […] a week, the animals were treated as follows:
group 2: 100 ppm of tylosin were added to the feed;
group 3: 25ppm of dihydromocimycin were added to the feed; and
group 4: 50 ppm of dihydromocimycin were added to the feed.
The antibiotic-enriched feed was administered for a week. After that week, feed without any antibiotic was given again. Recovery from the infection was observed from the weights of the animals and from inspection samples of the faeces, macroscopically from their consistencies, and microscopically by means of a specific immuno-fluoroescence technique. During the test, one animal of each of groups 1, 3 and 4 died.
The results are shown in the following Table wherein the weights indicated are the averages at that time of the still living animals. The consistency of the faeces is indicated as follows:
+ means thin liquid; ± means thick liquid; - means normal. The results of the immuno-fluorescence technique are indicated quantitatively by indicating the number of Treponemas in the visual field: 5 means very crowded; 4 means many; 3 means about 10 Treponemas; 2 means 1 or 2 Treponemas, 1 means more visual fields necessary to find one Treponema, and - means negative.

[2] = growth promotion in slaughter chickens (Example II); conditions: control = 100
Text: Slaughter chickens are given mocimycin in the form of the sodium salt obtained in Example 1, in a mixture with component of the feed (wheat flour), the amount of antibiotic in the feed (based on the weight of the feed) being as specified in the following Table, which gives the weight of the chickens after 3, 5 and 7 weeks.

[3] = growth promotion in pigs (Example III); conditions: control = 100
Experimental: The sodium salt of mocimycin as obtained in Example I, was pre-mixed with wheat flour which mixture, added to the feed, was administered to pigs. The amount of the antibiotic present in the feed (based on the weight of the feed) is given hereinbelow in Table VII, in which the average relative weights of the pigs after 6 and 12 weeks, respectively are given.

CC[C@H]1OC(=O)C[C@@H](O)[C@H](C)[C@@H](O[C@@H]2O[C@H](C)[C@@H](O[C@H]3C[C@@](C)(O)[C@@H](O)[C@H](C)O3)[C@H](N(C)C)[C@H]2O)[C@@H](CC=O)C[C@@H](C)C(=O)/C=C/C(C)=C/[C@@H]1CO[C@@H]1O[C@H](C)[C@@H](O)[C@@H](OC)[C@H]1OC [tylosin, reference compound]
Weights ([1]; tylosin 100 ppm group, after 1 week (start of antibiotics)): 22.2 kg
Weights ([1]; tylosin 100 ppm group, just before infection (baseline)): 24.4 kg
Weights ([1]; tylosin 100 ppm, after 2 weeks): 21.4 kg
Weights ([1]; tylosin 100 ppm, after 3 weeks): 23.2 kg

CC=CC=CC1OC(O)(C(CC)C(=O)NCC=CC=C(C)C(OC)C(C)C2OC(C=CC=CC=C(C)C(=O)c3c(O)cc[nH]c3=O)C(O)C2O)C(O)C(O)C1(C)C (stereo not drawn) [sodium salt of mocimycin]
weight of chickens relative to control (control = 100) ([2]; 5 ppm in feed, 3 weeks): 104%
weight of chickens relative to control (control = 100) ([2]; 5 ppm in feed, 5 weeks): 103%
weight of chickens relative to control (control = 100) ([2]; 5 ppm in feed, 7 weeks): 103%
weight of chickens relative to control (control = 100) ([2]; 10 ppm in feed, 3 weeks): 107%
weight of chickens relative to control (control = 100) ([2]; 10 ppm in feed, 5 weeks): 105%
weight of chickens relative to control (control = 100) ([2]; 10 ppm in feed, 7 weeks): 104%
weight of chickens relative to control (control = 100) ([2]; 20 ppm in feed, 3 weeks): 109%
weight of chickens relative to control (control = 100) ([2]; 20 ppm in feed, 5 weeks): 107%
weight of chickens relative to control (control = 100) ([2]; 20 ppm in feed, 7 weeks): 105%
feed conversion ([3]; 5 ppm in feed, 6 weeks): 95
growth (average relative weight) ([3]; 5 ppm in feed, 6 weeks): 107
feed conversion ([3]; 5 ppm in feed, 12 weeks): 98
growth (average relative weight) ([3]; 5 ppm in feed, 12 weeks): 104.5
feed conversion ([3]; 10 ppm in feed, 6 weeks): 92.5
growth (average relative weight) ([3]; 10 ppm in feed, 6 weeks): 108.5
feed conversion ([3]; 10 ppm in feed, 12 weeks): 99
growth (average relative weight) ([3]; 10 ppm in feed, 12 weeks): 104
